{
  "source": "paper PMC2709206",
  "about": "(The Journal of neuroscience : the official journal of the …, 2008)",
  "key": {"[1]": {"target": "T1, mouse TRPA1 (Mus musculus, UniProt Q8BLA8)", "T1 sequence (Q8BLA8 whole entry)": "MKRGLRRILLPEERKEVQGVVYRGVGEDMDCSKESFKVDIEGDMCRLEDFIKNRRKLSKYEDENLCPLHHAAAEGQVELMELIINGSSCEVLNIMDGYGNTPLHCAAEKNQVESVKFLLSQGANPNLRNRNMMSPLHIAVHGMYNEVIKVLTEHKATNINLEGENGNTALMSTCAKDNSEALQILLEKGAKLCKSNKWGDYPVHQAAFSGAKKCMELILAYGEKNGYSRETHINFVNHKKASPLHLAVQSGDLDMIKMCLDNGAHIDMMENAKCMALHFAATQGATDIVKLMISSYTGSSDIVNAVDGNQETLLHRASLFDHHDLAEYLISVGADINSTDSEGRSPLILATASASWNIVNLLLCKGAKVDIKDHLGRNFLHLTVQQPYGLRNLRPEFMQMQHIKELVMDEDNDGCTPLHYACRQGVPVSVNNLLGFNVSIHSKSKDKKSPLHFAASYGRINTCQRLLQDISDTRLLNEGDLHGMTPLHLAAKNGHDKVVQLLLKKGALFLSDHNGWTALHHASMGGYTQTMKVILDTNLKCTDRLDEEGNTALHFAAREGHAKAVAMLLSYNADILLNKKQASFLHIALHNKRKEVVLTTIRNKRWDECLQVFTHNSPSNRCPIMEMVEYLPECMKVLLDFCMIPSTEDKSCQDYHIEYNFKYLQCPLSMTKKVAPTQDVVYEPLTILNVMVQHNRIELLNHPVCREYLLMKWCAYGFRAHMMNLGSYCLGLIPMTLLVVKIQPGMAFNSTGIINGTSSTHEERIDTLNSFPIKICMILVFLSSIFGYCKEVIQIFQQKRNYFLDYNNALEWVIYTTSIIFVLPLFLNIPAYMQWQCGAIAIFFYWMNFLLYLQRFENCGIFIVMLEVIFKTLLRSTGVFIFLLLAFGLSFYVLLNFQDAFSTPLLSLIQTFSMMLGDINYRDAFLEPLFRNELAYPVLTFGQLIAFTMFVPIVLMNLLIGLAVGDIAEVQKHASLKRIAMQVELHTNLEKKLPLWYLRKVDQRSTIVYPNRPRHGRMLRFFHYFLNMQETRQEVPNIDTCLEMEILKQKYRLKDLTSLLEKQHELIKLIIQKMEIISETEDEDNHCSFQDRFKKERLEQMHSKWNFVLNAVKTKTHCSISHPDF", "assay": "[Ca2+]i increase in TRPA1-expressing CHO cells", "type": "cell-based", "conditions": "for [Ca2+]i-increase in TRPA1 CHO cells: at concentrations <50 μM, data not shown; for TRPA1 activation: Rose Bengal at 5 μM, supplemental Fig. 2"}, "[2]": {"target": "T1, mouse TRPA1", "assay": "Voltage-clamp electrophysiology of TRPA1 CHO cells", "type": "cell-based", "conditions": "for membrane current in TRPA1 CHO cells: whole-cell, holding potential -60 mV"}, "[3]": {"test_system": "untransfected CHO cells", "assay": "Responses", "type": "cell-based, Chinese hamster", "conditions": "data not shown"}, "[4]": {"test_system": "rat DRG neurons", "assay": "Calcium imaging of rat DRG neurons", "type": "cell-based", "conditions": "for capsaicin-sensitive DRG neurons that responded: 4-HNE 30 μM, 4-ONE 3 μM"}, "[5]": {"test_system": "rat nodose neurons", "assay": "Calcium imaging of rat nodose ganglion neurons", "type": "cell-based", "conditions": "for percentage of rat nodose neurons responding with [Ca2+]i increase: positive = at least 15% of response to 50 mM KCl, H2O2 5 mM, AITC 50 μM"}, "[6]": {"test_system": "DRG neurons", "assay": "Whole-cell voltage clamp of DRG neurons", "type": "cell-based, rat", "conditions": "voltage ramp"}, "[7]": {"test_system": "DRG neurons from trpa1+/+ mice", "assay": "Calcium imaging of DRG neurons from trpa1+/+ mice", "type": "cell-based", "conditions": "trpa1+/+ mouse DRG neurons; percentage of response to 50 mM KCl"}, "[8]": {"test_system": "DRG neurons from trpa1-/- mice", "assay": "Calcium imaging of DRG neurons from trpa1-/- mice", "type": "cell-based", "conditions": "trpa1-/- mouse DRG neurons; percentage of response to 50 mM KCl"}, "[9]": {"test_system": "DRG neurons from trpv1-/- mice", "assay": "Calcium imaging of DRG neurons from trpv1-/- mice", "type": "cell-based, mouse", "conditions": "trpv1-/- mice (113 of 355)"}, "[10]": {"test_system": "DRG neurons from wild-type mice", "assay": "Calcium imaging of DRG neurons from wild-type mice", "type": "cell-based, mouse", "conditions": "wild-type mice (134 of 445)"}, "[11]": {"test_system": "wild-type mice", "assay": "Nocifensive/pain behaviour after intraplantar injection, wild-type mice", "type": "in vivo, mouse", "conditions": "intraplantar 2.2 μmol H2O2 or 32 nmol 15d-PGJ2 in 25 μl, 3 min"}, "[12]": {"test_system": "trpa1-/- mice", "assay": "Nocifensive/pain behaviour after intraplantar injection, trpa1-/- mice", "type": "in vivo, mouse", "conditions": "intraplantar 2.2 μmol H2O2 or 32 nmol 15d-PGJ2 in 25 μl, 3 min, compared with wild-type"}, "[13]": {"test_system": "rat DRG neurons", "conditions": "ref Andersson et al., 2007; cited from earlier work"}, "[14]": {"target": "human TRPV1 (Homo sapiens, UniProt Q8NER1)", "sequence (Q8NER1 whole entry)": "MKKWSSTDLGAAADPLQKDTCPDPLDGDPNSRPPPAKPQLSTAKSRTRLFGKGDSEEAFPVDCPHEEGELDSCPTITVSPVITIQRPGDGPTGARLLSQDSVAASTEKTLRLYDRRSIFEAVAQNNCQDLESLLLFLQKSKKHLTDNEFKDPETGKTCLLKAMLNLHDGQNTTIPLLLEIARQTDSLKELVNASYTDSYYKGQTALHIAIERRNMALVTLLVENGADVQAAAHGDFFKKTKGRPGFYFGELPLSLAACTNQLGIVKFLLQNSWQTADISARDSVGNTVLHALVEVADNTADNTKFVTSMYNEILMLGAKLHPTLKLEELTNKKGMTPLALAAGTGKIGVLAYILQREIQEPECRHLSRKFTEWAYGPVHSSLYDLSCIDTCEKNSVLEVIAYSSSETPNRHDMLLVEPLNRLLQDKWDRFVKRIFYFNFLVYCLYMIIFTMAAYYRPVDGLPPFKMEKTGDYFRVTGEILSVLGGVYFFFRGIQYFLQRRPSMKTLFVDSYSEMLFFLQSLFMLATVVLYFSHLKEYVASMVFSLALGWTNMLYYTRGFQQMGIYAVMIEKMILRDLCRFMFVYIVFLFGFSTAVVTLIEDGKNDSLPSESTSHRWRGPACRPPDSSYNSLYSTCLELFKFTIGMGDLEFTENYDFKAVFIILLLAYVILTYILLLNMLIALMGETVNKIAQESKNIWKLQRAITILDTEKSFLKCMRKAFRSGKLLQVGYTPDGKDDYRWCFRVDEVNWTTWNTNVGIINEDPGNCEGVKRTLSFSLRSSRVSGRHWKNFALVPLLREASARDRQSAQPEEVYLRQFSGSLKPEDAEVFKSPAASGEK", "assay": "Responses in CHO cells expressing TRPV1", "type": "cell-based", "conditions": "data not shown"}},
  "note": "Where “and” joins values, the source holds several entries; their conditions need not be identical. Equal values may be shown once. Read-outs that look alike come from different tables or passages of the source.",
  "data": [
    {"smiles": "OO", "note": "[H2O2, hydrogen peroxide]", "values": [
      {"measurement": "reversal of [Ca2+]i response by dithiothreitol (DTT)", "setting": "[1]; DTT 1 mM", "value": "reversed"},
      {"measurement": "EC50 lower / potency increased in Fe2+-loaded vs untreated cells", "setting": "[1]; TRPA1 CHO cells, after 90 s", "value": "~ 20 fold and 20 fold"},
      {"measurement": "concentrations that activate TRPA1", "setting": "[1]; extracellularly applied", "value": "50 to 100", "unit": "µM"},
      {"measurement": "EC50", "setting": "[1]; read-out: EC50, increase in [Ca2+]i in Fe2+-loaded cells, TRPA1 CHO cells preloaded with 100 μM FeSO4 for 1 h, after 90 s", "value": "53 ± 6", "unit": "µM"},
      {"measurement": "EC50", "setting": "[1]; read-out: EC50, increase in [Ca2+]i, TRPA1 CHO cells, after 90 s exposure", "value": "1200 ± 400", "unit": "µM"},
      {"measurement": "EC50", "setting": "[1]; read-out: EC50, increase in [Ca2+]i, TRPA1 CHO cells, after 600 s exposure (plateau)", "value": 230, "unit": "µM"},
      {"measurement": "reversal potential of evoked current", "setting": "[2]; TRPA1 CHO cells, voltage ramp, calcium-free solution", "value": "~0", "unit": "mV"},
      {"measurement": "single-channel chord conductance", "setting": "[2]; cell-attached patches, -100 to +100 mV", "value": "94 ± 3", "unit": "pS"},
      {"measurement": "membrane current in TRPA1 CHO cells", "setting": "[2]", "value": "evoked an inward current"},
      {"measurement": "currents in untransfected CHO cells", "setting": "[3]; concentrations up to 100 mM", "value": "failed to evoke currents"},
      {"measurement": "capsaicin-sensitive DRG neurons that did not respond", "setting": "[4]; rat DRG neurons, calcium imaging", "value": "~ 50%"},
      {"measurement": "percentage of rat nodose neurons responding with [Ca2+]i increase", "setting": "[5]", "value": 49.8, "unit": "%"},
      {"measurement": "capsaicin-sensitive nodose neurons that did not respond", "setting": "[5]; rat nodose neurons, calcium imaging", "value": "~ 30%"},
      {"measurement": "reversal potential of evoked current", "setting": "[6]", "value": -6, "unit": "mV"},
      {"measurement": "Response amplitude (% of K+)", "setting": "[7]", "value": 70, "unit": "%"},
      {"measurement": "Response amplitude (% of K+)", "setting": "[8]", "value": 31, "unit": "%"},
      {"measurement": "proportion of sensitive DRG neurons", "setting": "[9]", "value": 31.8, "unit": "%"},
      {"measurement": "proportion of sensitive DRG neurons", "setting": "[10]", "value": 30.1, "unit": "%"},
      {"measurement": "nocifensive/pain-related behaviour", "setting": "[11]", "value": "marked nocifensive behaviors"},
      {"measurement": "nocifensive/pain-related behaviour", "setting": "[12]", "value": "greatly reduced or absent"}
    ]},
    {"smiles": "CCCCC[C@H](O)/C=C/[C@H]1C=CC(=O)[C@@H]1C/C=C\\CCCC(=O)O", "note": "[PGA2]", "values": [
      {"measurement": "[Ca2+]i-increase in TRPA1 CHO cells", "setting": "[1]", "value": "failed to elicit any significant [Ca^2+]i-increase"}
    ]},
    {"smiles": "CCCCCC(O)/C=C/C=O", "note": "(stereo not shown) [4-HNE, 4-hydroxynonenal]", "values": [
      {"measurement": "membrane current in TRPA1 CHO cells", "setting": "[2]", "value": "evoked membrane currents"},
      {"measurement": "capsaicin-sensitive DRG neurons that responded", "setting": "[4]", "value": "Approximately 50%"},
      {"measurement": "Response amplitude (% of K+)", "setting": "[7]", "value": 61, "unit": "%"},
      {"measurement": "Response amplitude (% of K+)", "setting": "[8]", "value": 34, "unit": "%"}
    ]},
    {"smiles": "CC1CCC(C(C)C)C(O)C1", "note": "(stereo not shown) [menthol]", "values": [
      {"measurement": "percentage of sensitive DRG neurons in DRG cultures", "setting": "[13]", "value": "~ 8%"}
    ]},
    {"smiles": "Cc1ccc(S(=O)(=O)NCl)cc1", "note": "[chloramine T]", "values": [
      {"measurement": "TRPA1 activation", "setting": "[1]", "value": "activated"}
    ]},
    {"smiles": "CCCCCC(=O)C=CC=O", "note": "[4-ONE, 4-oxo-2-nonenal]", "values": [
      {"measurement": "EC50", "setting": "[1]", "value": 1.9, "unit": "µM"},
      {"measurement": "capsaicin-sensitive DRG neurons that responded", "setting": "[4]", "value": "Approximately 50%"},
      {"measurement": "Response amplitude (% of K+)", "setting": "[7]", "value": 89, "unit": "%"},
      {"measurement": "Response amplitude (% of K+)", "setting": "[8]", "value": 34, "unit": "%"}
    ]},
    {"smiles": "C=CCN=C=S", "note": "[AITC, allyl isothiocyanate]", "values": [
      {"measurement": "percentage of rat nodose neurons responding with [Ca2+]i increase", "setting": "[5]", "value": 54.0, "unit": "%"},
      {"measurement": "Response amplitude (% of K+)", "setting": "[7]", "value": 86, "unit": "%"},
      {"measurement": "Response amplitude (% of K+)", "setting": "[8]", "value": 21, "unit": "%"}
    ]},
    {"smiles": "CCCCCC=CC=C1C(=O)C=C[C@@H]1CC=CCCCC(=O)O", "note": "[15d-PGJ2, 15-deoxy-Δ^12,14-prostaglandin J2]", "values": [
      {"measurement": "membrane current in TRPA1 CHO cells", "setting": "[2]", "value": "evoked inward currents"},
      {"measurement": "[Ca2+]i increase / membrane currents in untransfected CHO cells", "setting": "[3]", "value": "had no effect"},
      {"measurement": "[Ca2+]i increase / membrane currents in TRPV1 expressing CHO cells", "setting": "[14]", "value": "had no effect"},
      {"measurement": "Response amplitude (% of K+)", "setting": "[7]", "value": 63, "unit": "%"},
      {"measurement": "Response amplitude (% of K+)", "setting": "[8]", "value": 47, "unit": "%"},
      {"measurement": "nocifensive/pain-related behaviour", "setting": "[11]", "value": "marked nocifensive behaviors"},
      {"measurement": "nocifensive/pain-related behaviour", "setting": "[12]", "value": "greatly reduced or absent"}
    ]},
    {"smiles": "O=C([O-])c1c(Cl)c(Cl)c(Cl)c(Cl)c1-c1c2cc(I)c(=O)c(I)c-2oc2c(I)c([O-])c(I)cc12.[Na+].[Na+]", "note": "[Rose Bengal]", "values": [
      {"measurement": "TRPA1 activation", "setting": "[1]", "value": "activated"}
    ]},
    {"smiles": "CCCCC/C=C\\C=C1\\C(=O)CC[C@@H]1C/C=C\\CCCC(=O)O", "note": "[9,10-dihydro-15d-PGJ2]", "values": [
      {"measurement": "[Ca2+]i-increase in TRPA1 CHO cells", "setting": "[1]", "value": "failed to elicit any significant [Ca^2+]i-increase"}
    ]}
  ]
}
